From patent US4849207A, “Porphyrin derivatives” (Nihon Medi-Physics Co., Ltd., priority 1985, dated 1989)

Assays:
[1] = test system: cancer cells of the pancreas; experiment: Laser irradiation to an extracted organ (excited fluorescent spectrum); format: in vivo, golden hamsters; conditions: golden hamster, 5 mg i.v., after 24 hours
Method: Laser irradiation to an extracted organ (excited fluorescent spectrum):
To each of golden hamsters (five animals being grouped) transplaned with nitrosoamine-induced cancer cells of the pancreas, DTPA-10EG PPB-Me (5 mg) diluted with 0.1M citrate buffer (1 ml) was administered intravenously 14 to 21 days after the transplantation, and cancer cells and other organs were extracted. To each of the organs as extracted, N2 -pulsed laser (N2 337 nm, 2 ns 400-1000 nm) was irradiated, and excited fluorescent spectrum was measured after 24 hours. Taking the peak wavelength of NADH at 470 nm as the standard (i.e. 1), the wavelength at 600 to 900 nm was calculated. The results are shown in Table 1, from which it is understood that a porphyrin-related substance has a remarkably selective affinity to cancer cells.

[2] = test system: inflammation (croton oil induced); experiment: Distribution in inflammation-induced rats, inflammation to tissue; format: in vivo, SD rats; conditions: SD rat, 72 hour post-injection; mean and s.d. for 3 animals
Method: SD rats of about 200 grams in bodyweight received croton oil (0.1 ml) at the right hind leg subcutaneously to induce inflammation. […] The radioactivity level ratio between the inflamation and each tissue was determined.

[3] = test system: tumor; conditions: hamster, in vivo, 4320 min
Method: (§1) Scintigraphy was obtained 72 and 96 hours after the administration by the use of a gamma-camera equipped with a medium energy high resolution type collimator.

[4] = test system: inflammation (turpentine oil induced); conditions: hamster, in vivo, 4320 min
Method: as §1

2,4-Bis[1-(In-diethylenetriamine-tetraacetic acid-acetyloxyethane)oxyethyl] Ga-deuteroporphyrin [In--bisDTPA--EG Ga--DP]
excited fluorescence at 600 to 900 nm relative to NADH peak at 470 nm (=1): Cancer [1]: 0.40
excited fluorescence at 600 to 900 nm relative to NADH peak at 470 nm (=1): Kidney [1]: 0.10
excited fluorescence at 600 to 900 nm relative to NADH peak at 470 nm (=1): Liver [1]: 0.18
excited fluorescence at 600 to 900 nm relative to NADH peak at 470 nm (=1): Serum [1]: 0.03

2,4-Bis[1-(In-diethylenetriamine-tetraacetic acid-acetyloxyethane)oxyethyl] In-deuteroporphyrin [In--bisDTPA--EG In--DP]
excited fluorescence at 600 to 900 nm relative to NADH peak at 470 nm (=1): Cancer [1]: 0.00
excited fluorescence at 600 to 900 nm relative to NADH peak at 470 nm (=1): Kidney [1]: 0.05
excited fluorescence at 600 to 900 nm relative to NADH peak at 470 nm (=1): Liver [1]: 0.25
excited fluorescence at 600 to 900 nm relative to NADH peak at 470 nm (=1): Lung [1]: 0.05
excited fluorescence at 600 to 900 nm relative to NADH peak at 470 nm (=1): Serum [1]: 0.05

2-[1-(In-Diethylenetriamine-tetraacetic acid-acetyloxyethane)oxyethyl]-4-[1-(2-hydroxyethyl)oxyethyl] Ga-deuteroporphyrin [In--monoDTPA--EG Ga--DP]
excited fluorescence at 600 to 900 nm relative to NADH peak at 470 nm (=1): Cancer [1]: 0.50
excited fluorescence at 600 to 900 nm relative to NADH peak at 470 nm (=1): Kidney [1]: 0.05
excited fluorescence at 600 to 900 nm relative to NADH peak at 470 nm (=1): Liver [1]: 0.03
excited fluorescence at 600 to 900 nm relative to NADH peak at 470 nm (=1): Lung [1]: 0.14
excited fluorescence at 600 to 900 nm relative to NADH peak at 470 nm (=1): Serum [1]: 0.02

2-[1-(In-Diethylenetriamine-tetraacetic acid-acetyloxyethane)oxyethyl]-4-[1-(2-hydroxyethyl)oxyethyl] In-deuteroporphyrin [In--monoDTPA--EG In--DP]
excited fluorescence at 600 to 900 nm relative to NADH peak at 470 nm (=1): Cancer [1]: 0.30
excited fluorescence at 600 to 900 nm relative to NADH peak at 470 nm (=1): Kidney [1]: 0.00
excited fluorescence at 600 to 900 nm relative to NADH peak at 470 nm (=1): Liver [1]: 0.07
excited fluorescence at 600 to 900 nm relative to NADH peak at 470 nm (=1): Lung [1]: 0.09
excited fluorescence at 600 to 900 nm relative to NADH peak at 470 nm (=1): Serum [1]: 0.24

2-[1-(In-Diethylenetriamine-tetraacetic acid-acetyloxyethane)oxyethyl]-4-[1-(2-hydroxyethyl)oxyethyl] deuteroporphyrin dimethyl ester [In--DTPA--EG DP--Me]
excited fluorescence at 600 to 900 nm relative to NADH peak at 470 nm (=1): Cancer [1]: 0.83
excited fluorescence at 600 to 900 nm relative to NADH peak at 470 nm (=1): Kidney [1]: 0.15
excited fluorescence at 600 to 900 nm relative to NADH peak at 470 nm (=1): Liver [1]: 0.36
excited fluorescence at 600 to 900 nm relative to NADH peak at 470 nm (=1): Lung [1]: 0.09
excited fluorescence at 600 to 900 nm relative to NADH peak at 470 nm (=1): Serum [1]: 0.71

C=Cc1c(C)c2cc3nc(c4c5[nH]c(cc6nc(cc1[nH]2)C(C)=C6CC)c(C)c5C(=O)C4C(=O)OC)C(CCC(=O)OCCOC(=O)CN(CCN(CCN(CC(=O)O)CC(=O)O)CC(=O)O)CC(=O)O)C3C (stereo not shown) [DTPA--7EG PPB, Ethylene glycol mono-diethylenetriaminetetraacetic acid-acetate mono-7c-pheophorbate]
excited fluorescence at 600 to 900 nm relative to NADH peak at 470 nm (=1): Cancer [1]: 0.53
excited fluorescence at 600 to 900 nm relative to NADH peak at 470 nm (=1): Kidney [1]: 0.32
excited fluorescence at 600 to 900 nm relative to NADH peak at 470 nm (=1): Liver [1]: 0.33
excited fluorescence at 600 to 900 nm relative to NADH peak at 470 nm (=1): Lung [1]: 0.30
excited fluorescence at 600 to 900 nm relative to NADH peak at 470 nm (=1): Serum [1]: 0.31

C=Cc1c(C)c2cc3nc(c4c5[nH]c(cc6nc(cc1[nH]2)C(C)=C6CC)c(C)c5C(=O)C4)C(CCC(=O)OCCOC(=O)CN(CCN(CCN(CC(=O)O)CC(=O)O)CC(=O)O)CC(=O)O)C3C (stereo not shown) [DTPA--7EG pyroPPB, Ethylene glycol mono-diethylenetriaminetetraacetic acid-acetate mono-7c-pyropheophorbate]
excited fluorescence at 600 to 900 nm relative to NADH peak at 470 nm (=1): Cancer [1]: 2.20
excited fluorescence at 600 to 900 nm relative to NADH peak at 470 nm (=1): Kidney [1]: 0.25
excited fluorescence at 600 to 900 nm relative to NADH peak at 470 nm (=1): Liver [1]: 0.87
excited fluorescence at 600 to 900 nm relative to NADH peak at 470 nm (=1): Lung [1]: 1.23
excited fluorescence at 600 to 900 nm relative to NADH peak at 470 nm (=1): Serum [1]: 0.39

C=Cc1c(C)c2cc3nc(c4c5[nH]c(cc6nc(cc1[nH]2)C(C)=C6CC)c(C)c5C(=O)C4C(=O)OCCOC(=O)CN(CCN(CCN(CC(=O)O)CC(=O)O)CC(=O)O)CC(=O)O)C(CCC(=O)O)C3C (stereo not shown) [DTPA--10EG PPB, Ethylene glycol mono-diethylenetriamine-tetraacetic acid-acetate mono-10b-pheophorbate]
excited fluorescence at 600 to 900 nm relative to NADH peak at 470 nm (=1): Cancer [1]: 1.20
excited fluorescence at 600 to 900 nm relative to NADH peak at 470 nm (=1): Kidney [1]: 0.43
excited fluorescence at 600 to 900 nm relative to NADH peak at 470 nm (=1): Liver [1]: 0.77
excited fluorescence at 600 to 900 nm relative to NADH peak at 470 nm (=1): Lung [1]: 0.45
excited fluorescence at 600 to 900 nm relative to NADH peak at 470 nm (=1): Serum [1]: 0.52

C=Cc1c(C)c2cc3nc(c4c5[nH]c(cc6nc(cc1[nH]2)C(C)=C6CC)c(C)c5C(=O)C4C(=O)OCCOC(=O)CN(CCN(CCN(CC(=O)O)CC(=O)O)CC(=O)O)CC(=O)O)C(CCC(=O)OC)C3C (stereo not shown) [DTPA--10EG PPB--Me, Ethylene glycol monodiethylenetriaminetetraacetic acid-acetate mono-10b-methylpheophorbate]
excited fluorescence at 600 to 900 nm relative to NADH peak at 470 nm (=1): Cancer [1]: 2.73
excited fluorescence at 600 to 900 nm relative to NADH peak at 470 nm (=1): Kidney [1]: 0.37
excited fluorescence at 600 to 900 nm relative to NADH peak at 470 nm (=1): Liver [1]: 0.69
excited fluorescence at 600 to 900 nm relative to NADH peak at 470 nm (=1): Lung [1]: 0.47
excited fluorescence at 600 to 900 nm relative to NADH peak at 470 nm (=1): Serum [1]: 0.53

O=C([O-])CC(O)(CC(=O)[O-])C(=O)[O-].[67Ga+3] [Gallium (^67 Ga) citrate, gallium (^67 Ga) citrate]
Inflammation to tissue concentration ratio: Blood [2]: 21.61 ± 6.47
Inflammation to tissue concentration ratio: Heart [2]: 7.49 ± 3.37
Inflammation to tissue concentration ratio: Kidney [2]: 5.04 ± 6.35
Inflammation to tissue concentration ratio: Liver [2]: 0.69 ± 0.17
Inflammation to tissue concentration ratio: Lung [2]: 5.41 ± 0.71
Inflammation to tissue concentration ratio: Muscle [2]: 12.81 ± 4.61
Inflammation to tissue concentration ratio: Spleen [2]: 0.64 ± 0.11
Tumor to tissue concentration ratio: Blood [3]: 9.89
Tumor to tissue concentration ratio: Heart [3]: 1.73
Tumor to tissue concentration ratio: Kidney [3]: 0.20
Tumor to tissue concentration ratio: Liver [3]: 0.18
Tumor to tissue concentration ratio: Lung [3]: 1.26
Tumor to tissue concentration ratio: Muscle [3]: 14.20
Tumor to tissue concentration ratio: Spleen [3]: 0.39
Inflammation to tissue concentration ratio: Blood [4]: 17.55
Inflammation to tissue concentration ratio: Heart [4]: 3.10
Inflammation to tissue concentration ratio: Kidney [4]: 0.36
Inflammation to tissue concentration ratio: Liver [4]: 0.33
Inflammation to tissue concentration ratio: Lung [4]: 2.23
Inflammation to tissue concentration ratio: Muscle [4]: 25.15
Inflammation to tissue concentration ratio: Spleen [4]: 0.68

CCC1=C(C)c2cc3[nH]c(cc4nc(c5c6[nH]c(cc1n2)c(C)c6C(=O)C5C(=O)OCCOC(=O)C1C(=O)c2c(C)c5cc6nc(cc7[nH]c(cc8nc(c1c2[nH]5)C(CCC(=O)O)C8C)c(C)c7C(C)I)C(C)=C6CC)C(CCC(=O)O)C4C)c(C)c3C(C)I (stereo not shown) [I2 PPB Dimer, Bis[2-desethenyl-2-(1-iodoethyl)pheophobide]ethylene glycol diester]
excited fluorescence at 600 to 900 nm relative to NADH peak at 470 nm (=1): Cancer [1]: 0.82
excited fluorescence at 600 to 900 nm relative to NADH peak at 470 nm (=1): Kidney [1]: 0.07
excited fluorescence at 600 to 900 nm relative to NADH peak at 470 nm (=1): Liver [1]: 0.31
excited fluorescence at 600 to 900 nm relative to NADH peak at 470 nm (=1): Lung [1]: 0.20
excited fluorescence at 600 to 900 nm relative to NADH peak at 470 nm (=1): Serum [1]: 1.58
